From US11447481B2, “Microbiocidal oxadiazole derivatives” (SYNGENTA PARTICIPATIONS AG, priority 2017, dated 2022)

Legend:
[1] = system: Puccinia recondita f. sp. tritici; test: Fungicidal activity against Puccinia recondita f. sp. tritici / wheat / leaf disc preventative (brown rust); assay type: in vivo; details: foliar, wheat leaf segments, preventative (inoculated 1 day after application), compared to untreated control
Method: (§1) Leaf disks or leaf segments of various plant species are cut from plants grown in a greenhouse. The cut leaf disks or segments are placed in multiwell plates (24-well format) onto water agar. The leaf disks are sprayed with a test solution before (preventative) or after (curative) inoculation. Compounds to be tested are prepared as DMSO solutions (max. 10 mg/ml) which are diluted to the appropriate concentration with 0.025% Tween20 just before spraying. The inoculated leaf disks or segments are incubated under defined conditions (temperature, relative humidity, light, etc.) according to the respective test system. A single evaluation of disease level is carried out 3 to 14 days after inoculation, depending on the pathosystem. Percent disease control relative to the untreated check leaf disks or segments is then calculated.
(§2) Wheat leaf segments cv. Kanzler are placed on agar in multiwell plates (24-well format) and sprayed with the formulated test compound diluted in water. The leaf disks are inoculated with a spore suspension of the fungus 1 day after application. The inoculated leaf segments are incubated at 19° C. and 75% rh under a light regime of 12 h light/12 h darkness in a climate cabinet and the activity of a compound is assessed as percent disease control compared to untreated when an appropriate level of disease damage appears in untreated check leaf segments (7-9 days after application).

[2] = system: Puccinia recondita f. sp. tritici; test: Fungicidal activity against Puccinia recondita f. sp. tritici / wheat / leaf disc curative (brown rust); assay type: in vivo; details: foliar, 24 h, wheat leaf segments, curative (applied 1 day after inoculation), compared to untreated control
Method: as §1
as §2, with “format).” for “format) and sprayed with the formulated test compound diluted in water.”, “segments” for “disks”, “fungus. Plates are stored in darkness at 19° C. and 75% rh. The formulated test compound diluted in water is applied” for “fungus”, “inoculation.” for “application.”, “The” for “The inoculated”, “(6-8” for “(7-9”

Phakopsora pachyrhizi = test: Fungicidal activity against Phakopsora pachyrhizi / soybean / leaf disc preventative (Asian soybean rust); assay type: in vivo; details: foliar, soybean leaf disks, compared to untreated control
Method: as §1
Soybean leaf disks are placed on water agar in multiwell plates (24-well format) and sprayed with the formulated test compound diluted in water. One day after application leaf discs are inoculated by spraying a spore suspension on the lower leaf surface. After an incubation period in a climate cabinet of 24-36 hours in darkness at 20° C. and 75% rh leaf disc are kept at 20° C. with 12 h light/day and 75% rh. The activity of a compound is assessed as percent disease control compared to untreated when an appropriate level of disease damage appears in untreated check leaf disks (12-14 days after application).

[3] = system: Glomerella lagenarium (Colletotrichum lagenarium); test: Fungicidal activity against Glomerella lagenarium (Colletotrichum lagenarium) liquid culture / cucumber / preventative (anthracnose); assay type: cell-based; details: Colletotrichum orbiculare, liquid culture (PDB), growth inhibition measured photometrically 3-4 days after application, compared to untreated control
Method: Mycelia fragments or conidia suspensions of a fungus prepared either freshly from liquid cultures of the fungus or from cryogenic storage, are directly mixed into nutrient broth. DMSO solutions of the test compound (max. 10 mg/ml) are diluted with 0.025% Tween20 by a factor of 50 and 10 µl of this solution is pipetted into a microtiter plate (96-well format). The nutrient broth containing the fungal spores/mycelia fragments is then added to give an end concentration of the tested compound. The test plates are incubated in the dark at 24° C. and 96% relative humidity. The inhibition of fungal growth is determined photometrically after 2 to 7 days, depending on the pathosystem, and percent antifungal activity relative to the untreated check is calculated.
Conidia of the fungus from cryogenic storage are directly mixed into nutrient broth (PDB potato dextrose broth). After placing a (DMSO) solution of test compound into a microtiter plate (96-well format), the nutrient broth containing the fungal spores is added. The test plates are incubated at 24° C. and the inhibition of growth is measured photometrically 3-4 days after application.

| melting point [°C] | Structure (SMILES) | pest or weed control at 200 ppm [1] [%] | pest or weed control at 200 ppm [2] [%] | pest or weed control at 200 ppm (Phakopsora pachyrhizi) [%] | inhibition of growth at 20 ppm [3] [%] |
| --- | --- | --- | --- | --- | --- |
| 156 to 158 | Cc1ccn(Cc2ccc(-c3noc(C(F)(F)F)n3)cc2)c(=O)c1 [Compound C-5, 4-methyl-1-[[4-[5-(trifluoromethyl)-1,2,4-oxadiazol-3-yl]phenyl]methyl]pyridin-2-one] | ≥ 80 | ≥ 80 | ≥ 80 | ≥ 80 |
| 125 to 126 | O=c1ccc(F)cn1Cc1ccc(-c2noc(C(F)(F)F)n2)cc1 [Compound C-6, 5-fluoro-1-[[4-[5-(trifluoromethyl)-1,2,4-oxadiazol-3-yl]phenyl]methyl]pyridin-2-one] | ≥ 80 | ≥ 80 | ≥ 80 | ≥ 80 |
| 178 to 180 | N#Cc1cccn(Cc2ccc(-c3noc(C(F)(F)F)n3)cc2)c1=O [Compound C-7, 2-oxo-1-[[4-[5-(trifluoromethyly)-1,2,4-oxadiazol-3-yl]phenyl]methyl]pyridine-3-carbonitrile] | ≥ 80 | ≥ 80 | ≥ 80 | ≥ 80 |
| 115 to 117 | Cc1cccn(Cc2ccc(-c3noc(C(F)(F)F)n3)cc2)c1=O [Compound C-8, 3-methyl-1-[[4-[5-(trifluoromethyl)-1,2,4-oxadiazol-3-yl]phenyl]methyl]pyridin-2-one] | ≥ 80 | ≥ 80 | ≥ 80 | ≥ 80 |
| 131 to 133 | O=c1ccc(C(F)(F)F)cn1Cc1ccc(-c2noc(C(F)(F)F)n2)cc1 [Compound C-9, 5-(trifluoromethyl)-1-[[4-[5-(trifluoromethyl)-1,2,4-oxadiazol-3-yl]phenyl]methyl]pyridin-2-one] | ≥ 80 | ≥ 80 | ≥ 80 | ≥ 80 |
| 174 to 176 | Cc1ccc(=O)n(Cc2ccc(-c3noc(C(F)(F)F)n3)cc2)c1 [Compound C-10, 5-methyl-1-[[4-[5-(trifluoromethyl)-1,2,4-oxadiazol-3-yl]phenyl]methyl]pyridin-2-one] | ≥ 80 | ≥ 80 | ≥ 80 | ≥ 80 |
| 144 to 146 | N#Cc1ccc(=O)n(Cc2ccc(-c3noc(C(F)(F)F)n3)c(F)c2F)c1 [Compound C-11, 1-[[2,3-difluoro-4-[5-(trifluoromethyl)-1,2,4-oxadiazol-3-yl]phenyl]methyl]-6-oxo-pyridine-3-carbonitrile] | ≥ 80 | ≥ 80 | ≥ 80 | ≥ 80 |
| 154 to 156 | O=c1ccccn1Cc1ccc(-c2noc(C(F)(F)F)n2)c(F)c1F [Compound C-12, 1-[[2,3-difluoro-4-[5-(trifluoromethyl)-1,2,4-oxadiazol-3-yl]phenyl]methyl]pyridin-2-one] | ≥ 80 | ≥ 80 | ≥ 80 | ≥ 80 |
| 174 to 176 | N#Cc1ccc(=O)n(Cc2ccc(-c3noc(C(F)(F)F)n3)cc2)c1 [Compound C-13, 6-oxo-1-[[4-[5-(trifluoromethylyl)-1,2,4-oxadiazol-3-yl]phenyl]methyl]pyridine-3-carbonitrile] | ≥ 80 | ≥ 80 | ≥ 80 | ≥ 80 |
| 142 to 144 | O=c1ccccn1Cc1ccc(-c2noc(C(F)(F)F)n2)cc1 [Compound C-14, 1-[[4-[5-(trifluoromethyl)-1,2,4-oxadiazol-3-yl]phenyl]methyl]pyridin-2-one] | ≥ 80 | ≥ 80 | ≥ 80 | ≥ 80 |
| 92 to 94 | Cn1nnn(CCc2ccc(-c3noc(C(F)(F)F)n3)cc2)c1=O [Compound D-1, 1-methyl-4-[2-[4-[5-(trifluoromethyl)-1,2,4-oxadiazol-3-yl]phenyl]ethyl]tetrazol-5-one] | ≥ 80 | ≥ 80 | ≥ 80 | ≥ 80 |
